molecular target: human capsaicin receptor (VR1) (Homo sapiens, UniProt Q8NER1); assay: Capsaicin receptor binding assay ([3H]RTX competition, VR1-transfected HEK293 membranes); settings: not given
Sequence (Q8NER1 whole entry): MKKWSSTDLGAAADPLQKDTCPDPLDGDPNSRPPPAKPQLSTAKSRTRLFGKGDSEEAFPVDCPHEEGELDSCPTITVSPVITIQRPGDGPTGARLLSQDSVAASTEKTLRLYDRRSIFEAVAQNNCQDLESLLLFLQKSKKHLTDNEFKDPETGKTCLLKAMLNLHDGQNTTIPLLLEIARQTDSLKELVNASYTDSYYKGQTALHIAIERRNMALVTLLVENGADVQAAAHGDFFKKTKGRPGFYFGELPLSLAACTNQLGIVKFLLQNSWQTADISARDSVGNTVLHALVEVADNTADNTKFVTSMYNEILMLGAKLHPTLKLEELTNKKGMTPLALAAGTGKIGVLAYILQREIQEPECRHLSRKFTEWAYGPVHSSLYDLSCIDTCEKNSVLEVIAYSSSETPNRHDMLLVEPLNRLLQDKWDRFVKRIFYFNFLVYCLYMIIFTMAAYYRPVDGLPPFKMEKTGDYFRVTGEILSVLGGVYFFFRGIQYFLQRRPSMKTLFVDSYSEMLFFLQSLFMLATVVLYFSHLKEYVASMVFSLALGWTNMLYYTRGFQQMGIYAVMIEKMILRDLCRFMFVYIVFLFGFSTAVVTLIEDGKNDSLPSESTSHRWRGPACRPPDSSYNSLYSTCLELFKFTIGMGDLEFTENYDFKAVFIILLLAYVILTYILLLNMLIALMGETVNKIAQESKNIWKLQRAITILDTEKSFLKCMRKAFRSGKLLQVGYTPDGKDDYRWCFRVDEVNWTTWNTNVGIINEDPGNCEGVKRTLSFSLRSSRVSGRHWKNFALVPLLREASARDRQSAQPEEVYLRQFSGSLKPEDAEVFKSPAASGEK

Ki, < 1 µM:
COCCN(CCOC)Cc1nc(Nc2ccc(C(F)(F)F)cc2)c2ccc(-c3ncccc3C(F)(F)F)cc2n1 [Compound 344, [2-{[Bis-(2-methoxy-ethyl)-amino]-methyl}-7-(3-trifluoromethyl-pyridin-2-yl)-quinazolin-4-yl]-(4-trifluoromethyl-phenyl)-amine]
CCCCCN(CCCCC)Cc1nc(Nc2ccc(C(F)(F)F)cc2)c2ccc(-c3ncccc3C(F)(F)F)cc2n1 [Compound 345, [2-Dipentylaminomethyl-7-(3-trifluoromethyl-pyridin-2-yl)-quinazolin-4-yl]-(4-trifluoromethyl-phenyl)-amine]
CCCCCCN(CCCCCC)Cc1nc(Nc2ccc(C(F)(F)F)cc2)c2ccc(-c3ncccc3C(F)(F)F)cc2n1 [Compound 346, [2-Dihexylaminomethyl-7-(3-trifluoromethyl-pyridin-2-yl)-quinazolin-4-yl]-(4-trifluoromethyl-phenyl)-amine]
CC(c1ccccc1)N(C)Cc1nc(Nc2ccc(C(F)(F)F)nc2)c2ccc(-c3ncccc3C(F)(F)F)cc2n1 (stereo not drawn) [Compound 348, [2-{[Methyl-(1-phenyl-ethyl)-amino]-methyl}-7-(3-trifluoromethyl-pyridin-2-yl)-quinazolin-4-yl]-(6-trifluoromethyl-pyridin-3-yl)-amine]
CN(Cc1nc(Nc2ccc(C(F)(F)F)nc2)c2ccc(-c3ncccc3C(F)(F)F)cc2n1)C1CCc2ccccc21 (stereo not drawn) [Compound 349, [2-[(Indan-1-yl-methyl-amino)-methyl]-7-(3-trifluoromethyl-pyridin-2-yl)-quinazolin-4-yl]-(6-trifluoromethyl-pyridin-3-yl)-amine]
CCC(c1ccccc1)N(C)Cc1nc(Nc2ccc(C(F)(F)F)nc2)c2ccc(-c3ncccc3C(F)(F)F)cc2n1 (stereo not drawn) [Compound 350, [2-{[Methyl-1-(1-phenyl-propyl)-amino]-methyl}-7-(3-trifluoromethyl-pyridin-2-yl)-quinazolin-4-yl]-(6-trifluoromethyl-pyridin-3-yl)-amine]
CC1c2ccccc2CCN1Cc1nc(Nc2ccc(C(F)(F)F)nc2)c2ccc(-c3ncccc3C(F)(F)F)cc2n1 (stereo not drawn) [Compound 351, [2-(1-Methyl-3,4-dihydro-1H-isoquinolin-2-ylmethyl)-7-(3-trifluoromethyl-pyridin-2-yl)-quinazolin-4-yl]-(6-trifluoromethyl-pyridin-3-yl)-amine]
FC(F)(F)c1ccc(Nc2nc(CN3CCc4ccccc4C3)nc3cc(-c4ncccc4C(F)(F)F)ccc23)cn1 [Compound 352, [2-(3,4-Dihydro-1H-isoquinolin-2-ylmethyl)-7-(3-trifluoromethyl-pyridin-2-yl)-quinazolin-4-yl]-(6-trifluoromethyl-pyridin-3-yl)-amine]
CN(Cc1cccc(F)c1)Cc1nc(Nc2ccc(C(F)(F)F)nc2)c2ccc(-c3ncccc3C(F)(F)F)cc2n1 [Compound 353]
Cc1ccccc1CN(C)Cc1nc(Nc2ccc(C(F)(F)F)nc2)c2ccc(-c3ncccc3C(F)(F)F)cc2n1 [Compound 354, [2-{[Methyl-(2-methyl-benzyl)-amino]-methyl}-7-(3-trifluoromethyl-pyridin-2-yl)-quinazolin-4-yl]-(6-trifluoromethyl-pyridin-3-yl)-amine]
CN(Cc1nc(Nc2ccc(C(F)(F)F)nc2)c2ccc(-c3ncccc3C(F)(F)F)cc2n1)Cc1ccccc1F [Compound 355, [2-{[(2-Fluoro-benzyl)-methyl-amino]-methyl}-7-(3-trifluoromethyl-pyridin-2-yl)-quinazolin-4-yl]-(6-trifluoromethyl-pyridin-3-yl)-amine]

same assay, conditions: Table III; [3H]RTX competition binding, capsaicin receptor

Ki, < 1 µM:
CC1CC(C)CN(Cc2nc(Nc3ccc(C(F)(F)F)cc3)c3ccc(-c4ncccc4C(F)(F)F)cc3n2)C1 (stereo not drawn) [Compound 347, [2-(3,5-Dimethyl-piperidin-1-ylmethyl)-7-(3-trifluoromethyl-pyridin-2-yl)-quinazolin-4-yl]-(4-trifluoromethyl-phenyl)-amine]
